Like-named read-outs stand apart in the source and are kept apart here.
Molecular target: T1, human somatostatin receptor subtype 2 (Homo sapiens, UniProt P30874)
T1 construct: expressed in transfected cells
Experiment: Functional cAMP assay for SSTR2 agonists (HTRF) in CHO-K1 cells
Format: cell-based
Conditions: CHO-K1 cells stably expressing human SST2, 20 min
Excerpt: General overview: All five SSTR subtypes are Gi coupled G-protein coupled receptors (GPCRs) that lead to decreases in intracellular cyclic AMP (cAMP) when activated by an agonist. Therefore, measurement of intracellular cAMP levels can be used to assess whether compounds of the invention are agonists of SSTR subtypes (John Kelly, Troy Stevens, W. Joseph Thompson, and Roland Seifert, Current Protocols in Pharmacology, 2005, 2.2.1-2.2). One example of an intracellular cAMP assay is described below.
Functional Assay for SSTR2 Agonists
Four days prior to the assay, 2,000 Chinese hamster ovary cells (CHO-K1, ATCC #CCL-61) stably expressing the human somatostatin receptor subtype 2 are plated in each well of a 96-well tissue culture-treated plate in Ham's F12 growth media (ThermoFisher #10-080-CM) supplemented with 10% donor bovine serum (Gemini Bio-Products #100-506), 100 U/mL penicillin; 100 ug/mL streptomycin; 2 mM L-glutamine (Gemini Bio-Products #400-110) and 0.2 mg/mL hygromycin B (GoldBio #31282-04-9). The cells are cultured at 37° C., 5% CO2 and 95% humidity. cAMP is measured with HTRF dynamic cAMP assay (Cisbio, #62AM5PEJ) per manufacturer's instructions. On the day of the assay, the media is aspirated and the cells are treated with 50 μL of stimulation buffer supplemented with 10.2 mM 3-Isobutyl-1-methylxanthine (IBMX, Millipore Sigma #15879) and 1.6 μM NKH477 (Tocris #1603), plus various dilutions of SMDCs of the present invention. The cells are incubated for 20 minutes at 37° C. (the final concentration of the compounds of the invention are typically 0-10,000 nM). The cells are treated with 50 μL of lysis buffer (HRTF cAMP kit, Cisbio) and incubated at room temperature for 30 minutes with rotary shaking at 600 rpm, and then diluted with 150 μL of stimulation buffer and shaken for an additional five minutes at 300 rpm. The lysate is transferred to 384-well plates and incubated for 1-24 hours at room temperature, and cAMP accumulation is detected by d2-labeled cAMP and Anti-cAMP-Cryptate. The time-resolved fluorescent signal is read using a m1000 Pro (Tecan) or CLARIOStar (BMG Labtech) microplate reader, where the samples are excited with light at 340 nm and emission light is measured at 620 nm and 665 nm. The data is expressed as a calculation of the fluorescence ratio (665 nm/620 nm). The intracellular cAMP concentrations are calculated by regression to a standard curve and are plotted vs. the concentration of the compounds of the invention. The EC50 of the compounds are calculated using standard methods. All data manipulations are in GraphPad Prism v9 (GraphPad, San Diego, CA).

T1 sequence (P30874 whole entry): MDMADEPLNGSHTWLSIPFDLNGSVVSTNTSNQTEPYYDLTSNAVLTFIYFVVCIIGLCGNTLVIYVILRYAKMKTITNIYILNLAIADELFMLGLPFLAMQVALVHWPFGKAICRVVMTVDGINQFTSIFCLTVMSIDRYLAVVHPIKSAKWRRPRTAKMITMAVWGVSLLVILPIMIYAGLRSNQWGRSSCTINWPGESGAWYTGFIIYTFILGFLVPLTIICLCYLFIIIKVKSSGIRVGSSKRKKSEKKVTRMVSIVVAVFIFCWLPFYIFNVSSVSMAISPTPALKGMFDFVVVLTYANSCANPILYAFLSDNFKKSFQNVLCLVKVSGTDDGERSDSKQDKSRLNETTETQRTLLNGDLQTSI

| SMILES | EC50 (read-out: hSST2 cAMP Avg EC50) [nM] | EC50 (hSST2 cAMP Avg EC50 (nM)) [nM] |
| --- | --- | --- |
| Cc1cc(F)cc(-c2cnc(NCCOCCOCCOCCOCCNC(=O)CN3CCN(CC(=O)O)CCN(CC(=O)O)CCN(CC(=O)O)CC3)c(-c3ccc(C(F)(F)F)cc3)c2N2CCC(N)CC2)c1 [Compound 5, 2-(4-{[(14-{[4-(4-aminopiperidin-1-yl)-5-(3-fluoro-5-methylphenyl)-3-[4-(trifluoromethyl)phenyl]pyridin-2-yl]amino}-3,6,9,12-tetraoxatetradecan-1-yl)carbamoyl]methyl}-7,10-bis(carboxymethyl)-1,4,7,10-tetraazacyclododecan-1-yl)acetic acid] | 0.66 |  |
| Cc1cc(F)cc(-c2cnc(NCCCNC(=O)CCOCCOCCOCCOCCOCCNC(=O)CN3CCN(CC(=O)O)CCN(CC(=O)O)CCN(CC(=O)O)CC3)c(-c3nc4cc(Cl)ccc4[nH]3)c2N2CCC(N)CC2)c1 [Compound 3, 2-{7-[{{17-[(3-{[4-(4-aminopiperidin-1-yl)-3-(5-chloro-1H-1,3-benzodiazol-2-yl)-5-(3-fluoro-5-methylphenyl)pyridin-2-yl]amino}propyl)carbamoyl]-3,6,9,12,15-pentaoxaheptadecan-1-yl}carbamoyl)methyl]-4,10-bis(carboxymethyl)-1,4,7,10-tetraazacyclododecan-1-yl}acetic acid] | 0.14 |  |
| Cc1cc(F)cc(-c2cnc(NC3CCN(C(=O)CCOCCOCCOCCOCCOCCOCCNC(=O)CN4CCN5CCN6CCN(CC4)CC(=O)[O][In]([O]C(=O)C5)[O]C(=O)C6)CC3)c(-c3nc4cc(Cl)ccc4[nH]3)c2N2CCC(N)CC2)c1 [Compound 17, N-[21-(4-{[4-(4-aminopiperidin-1-yl)-3-(5-chloro-1H-1,3-benzodiazol-2-yl)-5-(3-fluoro-5-methylphenyl)pyridin-2-yl]amino}piperidin-1-yl)-21-oxo-3,6,9,12,15,18-hexaoxahenicosan-1-yl]-2-{3,16,19-trioxo-2,17,18-trioxa-5,8,11,14-tetraaza-1-indatricyclo[9.6.3.2^5,^14]docosan-8-yl}acetamide] | 0.1 |  |
| Cc1cc(F)cc(-c2cnc(NC3CCN(C(=O)CCOCCOCCOCCOCCOCCOCCNC(=O)CN4CCN(CC(=O)O)CCN(CC(=O)O)CCN(CC(=O)O)CC4)CC3)c(-c3nc4cc(Cl)ccc4[nH]3)c2N2CCC(N)CC2)c1 [Compound 4, 2-[7-({[21-(4-{[4-(4-aminopiperidin-1-yl)-3-(5-chloro-1H-1,3-benzodiazol-2-yl)-5-(3-fluoro-5-methylphenyl)pyridin-2-yl]amino}piperidin-1-yl)-21-oxo-3,6,9,12,15,18-hexaoxahenicosan-1-yl]carbamoyl}methyl)-4,10-bis(carboxymethyl)-1,4,7,10-tetraazacyclododecan-1-yl]acetic acid] | 0.2 |  |
| COCCOCCOCCOCCOCCC(=O)NCCNc1ncc(-c2cc(C)cc(F)c2)c(N2CCC(N)CC2)c1-c1nc2ccc(Cl)cc2[nH]1 [Compound 14, N-(2-{[4-(4-aminopiperidin-1-yl)-3-(6-chloro-1H-1,3-benzodiazol-2-yl)-5-(3-fluoro-5-methylphenyl)pyridin-2-yl]amino}ethyl)-2,5,8,11,14-pentaoxaheptadecan-17-amide] | 0.048 |  |
| CC[C@@]1(O)C(=O)OCc2c1cc1n(c2=O)Cc2c-1nc1cc(F)c(C)c3c1c2[C@@H](NC(=O)OCc1ccc(NC(=O)[C@H](CCCNC(N)=O)NC(=O)[C@@H](NC(=O)CCOCCOCCOCCOCCC(=O)NCCNc2ncc(-c4cc(C)cc(F)c4)c(N4CCC(N)CC4)c2-c2nc4ccc(Cl)cc4[nH]2)C(C)C)c(O[C@@H]2O[C@H](C(=O)O)[C@@H](O)[C@H](O)[C@H]2O)c1)CC3 [Compound 74] |  | 0.31 |
| Cc1cc(F)cc(-c2cnc(NCCOCCOCCOCCOCCNC(=O)CN3CCN4CCN5CCN(CC3)CC(=O)[O][In]([O]C(=O)C4)[O]C(=O)C5)c(-c3ccc(C(F)(F)F)cc3)c2N2CCC(N)CC2)c1 [Compound 18, N-(14-{[4-(4-aminopiperidin-1-yl)-5-(3-fluoro-5-methylphenyl)-3-[4-(trifluoromethyl)phenyl]pyridin-2-yl]amino}-3,6,9,12-tetraoxatetradecan-1-yl)-2-{3,16,19-trioxo-2,17,18-trioxa-5,8,11,14-tetraaza-1-indatricyclo[9.6.3.2^5,^14]docosan-8-yl}acetamide] | 1.8 |  |
| Cc1cc(F)cc(-c2cnc(NCCCNC(=O)CCOCCOCCOCCOCCOCCNC(=O)CN3CCN4CCN5CCN(CC3)CC(=O)[O][In]([O]C(=O)C4)[O]C(=O)C5)c(-c3nc4cc(Cl)ccc4[nH]3)c2N2CCC(N)CC2)c1 [Compound 16, N-(3-{[4-(4-aminopiperidin-1-yl)-3-(5-chloro-1H-1,3-benzodiazol-2-yl)-5-(3-fluoro-5-methylphenyl)pyridin-2-yl]amino}propyl)-1-(2-{3,16,19-trioxo-2,17,18-trioxa-5,8,11,14-tetraaza-1-indatricyclo[9.6.3.2^5,^14]docosan-8-yl}acetamido)-3,6,9,12,15-pentaoxaoctadecan-18-amide] | 0.11 |  |
| Cc1cc(F)cc(-c2cnc(NCCNC(=O)CCOCCOCCOCCOCCOCCNC(=O)CN3CCN(CC(=O)O)CCN(CC(=O)O)CCN(CC(=O)O)CC3)c(-c3nc4cc(Cl)ccc4[nH]3)c2N2CCC(N)CC2)c1 [Comp. 1, 2-{7-[({17-[(2-{[4-(4-aminopiperidin-1-yl)-3-(5-chloro-1H-1,3-benzodiazol-2-yl)-5-(3-fluoro-5-methylphenyl)pyridin-2-yl]amino}ethyl)carbamoyl]-3,6,9,12,15-pentaoxaheptadecan-1-yl}carbamoyl)methyl}-4,10-bis(carboxymethyl)-1,4,7,10-tetraazacyclododecan-1-yl}acetic acid, reference compound] | 0.075 |  |
| Cc1cc(F)cc(-c2cnc(NCCOC(=O)NCCOCCOCCOCCOCCOCCNC(=O)CN3CCN(CC(=O)O)CCN(CC(=O)O)CCN(CC(=O)O)CC3)c(-c3nc4cc(Cl)ccc4[nH]3)c2N2CCC(N)CC2)c1 [Comp. 2, 2-(7-{[(17-{[(2-{[4-(4-aminopiperidin-1-yl)-3-(5-chloro-1H-1,3-benzodiazol-2-yl)-5-(3-fluoro-5-methylphenyl)pyridin-2-yl]amino}ethoxy)carbonyl]amino}-3,6,9,12,15-pentaoxaheptadecan-1-yl)carbamoyl]methyl}-4,10-bis(carboxymethyl)-1,4,7,10-tetraazacyclododecan-1-yl)acetic acid, reference compound] | 0.17 |  |
| Cc1cc(F)cc(-c2cnc(NCCNC(=O)CCOCCOCCOCCOCCOCCNC(=O)CN3CCN4CCN5CCN(CC3)CC(=O)[O][In]([O]C(=O)C4)[O]C(=O)C5)c(-c3nc4cc(Cl)ccc4[nH]3)c2N2CCC(N)CC2)c1 [Compound 15, N-(2-{[4-(4-aminopiperidin-1-yl)-3-(5-chloro-1H-1,3-benzodiazol-2-yl)-5-(3-fluoro-5-methylphenyl)pyridin-2-yl]amino}ethyl)-1-(2-{3,16,19-trioxo-2,17,18-trioxa-5,8,11,14-tetraaza-1-indatricyclo[9.6.3.2^5,14]docosan-8-yl}acetamido)-3,6,9,12,15-pentaoxaoctadecan-18-amide] | 0.057 |  |
| CC[C@@]1(O)C(=O)OCc2c1cc1n(c2=O)Cc2c-1nc1cc(F)c(C)c3c1c2[C@@H](NC(=O)OCc1ccc(NC(=O)[C@H](CCCNC(N)=O)NC(=O)[C@@H](NC(=O)CCOCCC(=O)NCCNc2ncc(-c4cc(C)cc(F)c4)c(N4CCC(N)CC4)c2-c2nc4ccc(Cl)cc4[nH]2)C(C)C)c(O[C@@H]2O[C@H](C(=O)O)[C@@H](O)[C@H](O)[C@H]2O)c1)CC3 [Compound 73] |  | 0.49 |
